# Test results published in US8633182B2, “Indanyloxyphenylcyclopropanecarboxylic acids” (Boehringer Ingelheim International GmbH, priority 2012, dated 2014).
# Target: human GPR40 receptor (Homo sapiens, UniProt O14842)
# Test: IP1 accumulation measurements using the IPOne assay system in 1321N1 cells stably expressing human GPR40 receptor
# Format: cell-based
# Conditions: IP1 accumulation (HTRF), 1321N1 cells stably expressing human GPR40, 1 hour stimulation at 37° C.
# Method: IP1 accumulation measurements using the IPOne assay system—1321N1 cells stably expressing human GPR40 receptor (Euroscreen, Belgium) are seeded 24 h before the assay in black clear-bottom collagen-coated or white 384-well plates in culture medium containing 10% FCS, 1% Na-Pyruvate and 400 μg/mL G418. IP1 is assayed according to the Manufacturer's description (Cisbio Bioassays, France). In brief, the assay is started by substitution of the culture medium by stimulation buffer (Hepes 10 mM, CaCl2 1 mM, MgCl2 0.5 mM, KCl 4.2 mM, NaCl 146 mM and glucose 5.5 mM, pH 7.4) without LiCl or with […]. Cells are stimulated for 1 hour at 37° C., 5 or 10% CO2 by addition of the compounds that are diluted in stimulation buffer containing LiCl yielding a final LiCl concentration of 50 mM. Assays are stopped by adding HTRF-conjugates (IP1-d2 and Anti-IP1 cryptate Tb) and lysis buffer, provided by the manufacturer. After an incubation time of 1 hour at room temperature plates are measured using an EnVision™, Perkin Elmer. The obtained fluorescence ratios at […] are then used to calculate the pEC50 values using GraphPad Prism 5 (Graphpad Software Inc, USA) or Assay Explorer 3.3 Software (Accelrys, Inc.) by interpolation using an IP1 reference curve and subsequent sigmoidal curve fitting allowing for a variable hill slope.
# human GPR40 receptor, sequence (O14842 whole entry): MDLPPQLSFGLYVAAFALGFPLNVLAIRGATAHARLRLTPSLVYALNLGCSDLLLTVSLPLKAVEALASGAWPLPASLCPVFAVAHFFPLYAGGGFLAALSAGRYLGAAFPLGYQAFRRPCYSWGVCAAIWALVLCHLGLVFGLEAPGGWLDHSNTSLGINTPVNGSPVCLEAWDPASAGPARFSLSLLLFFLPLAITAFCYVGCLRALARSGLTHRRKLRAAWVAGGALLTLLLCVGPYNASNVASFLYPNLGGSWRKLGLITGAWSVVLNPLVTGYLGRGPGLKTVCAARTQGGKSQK
row,SMILES,EC50 [nM]
1,"Cc1cccc(C)c1-c1ccc(F)c2c1CC[C@H]2Oc1ccc(C2CC2C(=O)O)cc1 (stereo in doubt) [Example 33, 2-{4-[(R)-4-(2,6-Dimethyl-phenyl)-7-fluoro-indan-1-yloxy]-phenyl}-trans-cyclopropanecarboxylic acid]",2
2,"O=C(O)C1CC1c1ccc(O[C@@H]2CCc3c2cccc3C(F)(F)F)cc1 (stereo in doubt) [Example 2, 2-[4-((R)-4-Trifluoromethyl-indan-1-yloxy)-phenyl]-trans-cyclopropanecarboxylic acid]",15
3,"O=C(O)[C@H]1C[C@@H]1c1ccc(O[C@@H]2CCc3c(-c4cccc5cnccc45)ccc(F)c32)cc1 [Example 49, (1S,2S)-2-(4-((1R)-7-fluoro-4-(isoquinolin-5-yl)-2,3-dihydro-1H-inden-1-yloxy)phenyl)cyclo-propanecarboxylic acid]",5
4,"O=C(O)[C@H]1C[C@@H]1c1ccc(O[C@@H]2CCc3c(-c4cncc5ccccc45)ccc(F)c32)cc1 [Example 46, (1S,2S)-2-(4-((1R)-7-fluoro-4-(isoquinolin-4-yl)-2,3-dihydro-1H-inden-1-yloxy)phenyl)cyclo-propanecarboxylic acid]",6
5,"Cc1cc(C(=O)NCC(C)(C)O)cc(C)c1-c1ccc(F)c2c1CC[C@H]2Oc1ccc([C@H]2C[C@@H]2C(=O)O)cc1 [Example 15, (1S,2S)-2-(4-{(R)-7-Fluoro-4-[4-(2-hydroxy-2-methyl-propylcarbamoyl)-2,6-dimethyl-phenyl]-indan-1-yloxy}-phenyl)-cyclopropanecarboxylic acid]",12
6,"Cc1ccc2c(cnn2C)c1-c1ccc(F)c2c1CC[C@H]2Oc1ccc([C@H]2C[C@@H]2C(=O)O)cc1 [Example 58, (1S,2S)-2-(4-((1R)-4-(1,5-dimethyl-1H-indazol-4-yl)-7-fluoro-2,3-dihydro-1H-inden-1-yloxy)phenyl)cyclopropanecarb oxylic acid]",4
7,Cc1cc(OCC2(O)CCS(=O)(=O)CC2)cc(C)c1-c1ccc(F)c2c1CC[C@H]2Oc1ccc([C@H]2C[C@@H]2C(=O)O)cc1 [Example 39],6
8,Cc1cc(OCCCS(C)(=O)=O)cc(C)c1-c1ccc(F)c2c1CC[C@H]2Oc1ccc([C@H]2C[C@@H]2C(=O)O)cc1 [Example 11],9
9,Cc1cc(-c2nnn(C)n2)cc(C)c1-c1ccc(F)c2c1CC[C@H]2Oc1ccc([C@H]2C[C@@H]2C(=O)O)cc1 [Example 45],2
10,"O=C(O)[C@H]1C[C@@H]1c1ccc(O[C@@H]2CCc3c(-c4ccncc4C(F)(F)F)ccc(F)c32)cc1 [Example 52, (1S,2S)-2-(4-((1R)-7-fluoro-4-(3-(trifluoromethyl)pyridin-4-yl)-2,3-dihydro-1H-inden-1-yloxy)phenyl)cyclopropanecarb oxylic acid]",38
11,"CNC(=O)c1cc(C)c(-c2ccc(F)c3c2CC[C@H]3Oc2ccc([C@H]3C[C@@H]3C(=O)O)cc2)c(C)c1 [Example 19, (1S,2S)-2-{4-[(R)-4-(2,6-Dimethyl-4-methylcarbamoyl-phenyl)-7-fluoro-indan-1-yloxy]-phenyl}-cyclopropane-carboxylic acid]",13
12,"O=C(O)[C@H]1C[C@@H]1c1ccc(O[C@@H]2CCc3cccc(F)c32)cc1 [Example 16, (1S,2S)-2-[4-((R)-7-Fluoro-indan-1-yloxy)-phenyl]-cyclopropanecarboxylic acid]",304
13,"Cc1cc(-c2nc(C)n(C)n2)cc(C)c1-c1ccc(F)c2c1CC[C@H]2Oc1ccc([C@H]2C[C@@H]2C(=O)O)cc1 [Example 42, (1S,2S)-2-(4-{(R)-4-[4-(1,5-Dimethyl-1H-[1,2,4]triazol-3-yl)-2,6-dimethyl-phenyl]-7-fluoro-indan-1-yloxy}-phenyl)-cyclopropanecarboxylic acid]",1
14,"Cc1ncc(-c2ccc(F)c3c2CC[C@H]3Oc2ccc([C@H]3C[C@@H]3C(=O)O)cc2)n1C [Example 57, (1S,2S)-2-(4-((1R)-4-(1,2-dimethyl-1H-imidazol-5-yl)-7-fluoro-2,3-dihydro-1H-inden-1-yloxy)phenyl)cyclopropanecarb oxylic acid]",1400
15,"Cc1cc(OCC(C)(C)S(C)(=O)=O)cc(C)c1-c1ccc(F)c2c1CC[C@H]2Oc1ccc([C@H]2C[C@@H]2C(=O)O)cc1 [Example 14, (1S,2S)-2-(4-{(R)-7-Fluoro-4-[4-(2-methanesulfonyl-2-methyl-propoxy)-2,6-dimethyl-phenyl]-indan-1-yloxy}-phenyl)-cyclopropanecarboxylic acid]",8
16,"Cc1cc(OCC(C)(C)O)cc(C)c1-c1ccc(F)c2c1CC[C@H]2Oc1ccc([C@H]2C[C@@H]2C(=O)O)cc1 [Example 27, (1S,2S)-2-(4-{(R)-7-Fluoro-4-[4-(2-hydroxy-2-methyl-propoxy)-2,6-dimethyl-phenyl]-indan-1-yloxy}-phenyl)-cyclopropanecarboxylic acid]",8
17,N#Cc1sccc1-c1ccc(F)c2c1CC[C@H]2Oc1ccc([C@H]2C[C@@H]2C(=O)O)cc1 [Example 47],191

row,SMILES,EC50 [nM]
1,Cn1ccc2c(-c3ccc(F)c4c3CC[C@H]4Oc3ccc([C@H]4C[C@@H]4C(=O)O)cc3)cccc21 [Example 53],13
2,"O=C(O)[C@H]1C[C@@H]1c1ccc(O[C@@H]2CCc3c(-c4ccccc4-c4cocn4)ccc(F)c32)cc1 [Example 61, (1S,2S)-2-(4-((1R)-7-fluoro-4-(2-(oxazol-4-yl)phenyl)-2,3-dihydro-1H-inden-1-yloxy)-phenyl)cyclopropanecarboxylic acid]",28
3,Cc1c(C#N)cccc1-c1ccc(F)c2c1CC[C@H]2Oc1ccc([C@H]2C[C@@H]2C(=O)O)cc1 [Example 54],5
4,Cc1cc(O[C@@H]2CCN(S(C)(=O)=O)C2)cc(C)c1-c1ccc(F)c2c1CC[C@H]2Oc1ccc([C@H]2C[C@@H]2C(=O)O)cc1 [Example 23],13
5,"O=C(O)[C@H]1C[C@@H]1c1ccc(O[C@@H]2CCc3c(-c4cccc5ncccc45)ccc(F)c32)cc1 [Example 48, (1S,2S)-2-(4-((1R)-7-fluoro-4-(quinolin-5-yl)-2,3-dihydro-1H-inden-1-yloxy)phenyl)cyclo-propanecarboxylic acid]",6
6,"Cc1cc(OCCC(C)(C)O)cc(C)c1-c1ccc(F)c2c1CC[C@H]2Oc1ccc([C@H]2C[C@@H]2C(=O)O)cc1 [Example 17, (1S,2S)-2-(4-{(R)-7-Fluoro-4-[4-(3-hydroxy-3-methyl-butoxy)-2,6-dimethyl-phenyl]-indan-1-yloxy}-phenyl)-cyclopropanecarboxylic acid]",4
7,"Cc1nn(C)cc1-c1ccc(F)c2c1CC[C@H]2Oc1ccc([C@H]2C[C@@H]2C(=O)O)cc1 [Example 56, (1S,2S)-2-(4-((1R)-4-(1,3-dimethyl-1H-pyrazol-4-yl)-7-fluoro-2,3-dihydro-1H-inden-1-yloxy)phenyl)cyclopropanecarb oxylic acid]",224
8,Cc1cc(O[C@H]2CCN(S(C)(=O)=O)C2)cc(C)c1-c1ccc(F)c2c1CC[C@H]2Oc1ccc([C@H]2C[C@@H]2C(=O)O)cc1 [Example 24],18
9,O=C(O)C1CC1c1ccc(OC2CCc3c2ccc(C(F)(F)F)c3-c2ccc(OCC3(O)CCOCC3)cc2)cc1 (stereo not shown) [Example 63],7
10,"Cc1cc(-c2nc(C)n(CC(C)(C)O)n2)cc(C)c1-c1ccc(F)c2c1CC[C@H]2Oc1ccc([C@H]2C[C@@H]2C(=O)O)cc1 [Example 41, (1S,2S)-2-[4-((R)-7-Fluoro-4-{4-[1-(2-hydroxy-2-methyl-propyl)-5-methyl-1H-[1,2,4]triazol-3-yl]-2,6-dimethyl-phenyl}-indan-1-yloxy)-phenyl]-cyclopropanecarboxylic acid]",2
11,O=C(O)[C@H]1C[C@@H]1c1ccc(O[C@@H]2CCc3c(-c4ccnc5ccccc45)ccc(F)c32)cc1 [Example 50],11
12,"O=C(O)C1CC1c1ccc(O[C@@H]2CCc3c(OC(F)(F)F)cccc32)cc1 (stereo in doubt) [Example 4, 2-[4-((R)-4-Trifluoromethoxy-indan-1-yloxy)-phenyl]-trans-cyclopropanecarboxylic acid]",18
13,Cc1cc(OCCCS(C)(=O)=O)cc(C)c1-c1ccc(F)c2c1CC[C@H]2Oc1ccc(C2CC2C(=O)O)cc1 (stereo partly shown) [Example 13],13
14,Cc1cc(OCCN2CCCS2(=O)=O)cc(C)c1-c1ccc(F)c2c1CC[C@H]2Oc1ccc([C@H]2C[C@@H]2C(=O)O)cc1 [Example 22],12
15,"Cc1cc(OC2CCOCC2)cc(C)c1-c1c(C#N)ccc2c1CC[C@H]2Oc1ccc([C@H]2C[C@@H]2C(=O)O)cc1 [Example 38, (1S,2S)-2-(4-{(R)-5-Cyano-4-[2,6-dimethyl-4-(tetrahydro-pyran-4-yloxy)-phenyl]-indan-1-yloxy}-phenyl)-cyclopropane-carboxylic acid]",40
16,COc1cc(O[C@@H]2CCc3c(OC(F)(F)F)cccc32)ccc1[C@@H]1C[C@H]1C(=O)O [Example 8],407
17,"Cc1cc(OC[C@H](C)CS(C)(=O)=O)cc(C)c1-c1ccc(F)c2c1CC[C@H]2Oc1ccc([C@H]2C[C@@H]2C(=O)O)cc1 [Example 28, (1S,2S)-2-(4-{(R)-7-Fluoro-4-[4-((S)-3-methanesulfonyl-2-methyl-propoxy)-2,6-dimethyl-phenyl]-indan-1-yloxy}-phenyl)-cyclopropanecarboxylic acid]",6
